Source: ChEMBL document CHEMBL1201862, “PubChem BioAssay data set” (2004)
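Where inhibition never reached the appropriate level, the endpoint shown equals the highest concentration tested. Otherwise, values were interpolated linearly from a five-concentration, 48-hour dose response in 96-well plates. Abbreviation: GI50, concentration required for 50% inhibition of growth.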 Calls of active or inactive are those of the source. No stated cut-off is given here; in the data, active = GI50 up to about 1.1 µM and inactive = higher.

Columns and labels:
Test in all cases: NCI anticancer screen, dose series, 48 h
SW-620 = tested on: SW-620
A498 = tested on: A498
SNB-75 = tested on: SNB-75
IGROV-1 = tested on: IGROV-1
HOP-92 = tested on: HOP-92
K562 = tested on: K562
ACHN = tested on: ACHN
OVCAR-3 = tested on: OVCAR-3
RXF 393 = tested on: RXF 393
UO-31 = tested on: UO-31
SF-268 = tested on: SF-268
HT-29 = tested on: HT-29
U-251 = tested on: U-251
TK-10 = tested on: TK-10
NCI-H23 = tested on: NCI-H23
HCT-116 = tested on: HCT-116
OVCAR-5 = tested on: OVCAR-5
CCRF-CEM = tested on: CCRF-CEM

| Structure (SMILES) | GI50 (SW-620) | GI50 (A498) | GI50 (SNB-75) | GI50 (IGROV-1) | GI50 (HOP-92) | GI50 (K562) | GI50 (ACHN) | GI50 (OVCAR-3) | GI50 (RXF 393) | GI50 (UO-31) | GI50 (SF-268) | GI50 (HT-29) | GI50 (U-251) | GI50 (TK-10) | GI50 (NCI-H23) | GI50 (HCT-116) | GI50 (OVCAR-5) | GI50 (CCRF-CEM) |
| --- | --- | --- | --- | --- | --- | --- | --- | --- | --- | --- | --- | --- | --- | --- | --- | --- | --- | --- |
| O=c1c2ccccc2[nH]c(=S)n1-c1ccc(Br)cc1 | 87.1 µM (inactive) | 51.6 µM (inactive) | 30.7 µM (inactive) | 71.4 µM (inactive) | 18.8 µM (inactive) | 43 µM (inactive) | 42.5 µM (inactive) | 45.1 µM (inactive) | > 100 µM (inactive) | 92.5 µM (inactive) | 90.8 µM (inactive) | 44.9 µM (inactive) | > 100 µM (inactive) | > 100 µM (inactive) | 51.9 µM (inactive) | 68.4 µM (inactive) |  |  |
| Cc1c(C2Cc3ccccc3N2)c2ccccc2n1C (stereo unspecified) | > 100 µM (inactive) | > 100 µM (inactive) | > 100 µM (inactive) | > 100 µM (inactive) |  | > 100 µM (inactive) | > 100 µM (inactive) | > 100 µM (inactive) | > 100 µM (inactive) | > 100 µM (inactive) | > 100 µM (inactive) | > 100 µM (inactive) | > 100 µM (inactive) | > 100 µM (inactive) | > 100 µM (inactive) | > 100 µM (inactive) | > 100 µM (inactive) | > 100 µM (inactive) |
| O=C1CCC(=O)N2CCCCN12 | > 100 µM (inactive) | > 100 µM (inactive) | > 100 µM (inactive) | > 100 µM (inactive) | > 100 µM (inactive) | > 100 µM (inactive) | > 100 µM (inactive) | > 100 µM (inactive) | > 100 µM (inactive) | > 100 µM (inactive) | > 100 µM (inactive) | > 100 µM (inactive) | > 100 µM (inactive) | > 100 µM (inactive) | > 100 µM (inactive) | > 100 µM (inactive) | > 100 µM (inactive) | > 100 µM (inactive) |
| CC(=O)O[C@H]1CC[C@@]2(C)C(=CC[C@H]3C(CC#N)[C@@](C)(C#N)CCC32)C1 (stereo partly specified) | > 100 µM (inactive) | 38.5 µM (inactive) | 69.8 µM (inactive) | > 100 µM (inactive) | 16.1 µM (inactive) | > 100 µM (inactive) | > 100 µM (inactive) | > 100 µM (inactive) | > 100 µM (inactive) | > 100 µM (inactive) | > 100 µM (inactive) | > 100 µM (inactive) | 74 µM (inactive) | > 100 µM (inactive) | > 100 µM (inactive) | > 100 µM (inactive) | > 100 µM (inactive) | > 100 µM (inactive) |
| COC(=O)[C@@H]1C(=O)O[C@@H](c2cc(OC)c(OC)cc2OC)[C@@H]1C(=O)OC.COC(=O)[C@H]1C(=O)O[C@@H](c2cc(OC)c(OC)cc2OC)[C@@H]1C(=O)OC | > 100 µM (inactive) | > 100 µM (inactive) | > 100 µM (inactive) | > 100 µM (inactive) | > 100 µM (inactive) | > 100 µM (inactive) | > 100 µM (inactive) | > 100 µM (inactive) | > 100 µM (inactive) | > 100 µM (inactive) | > 100 µM (inactive) | > 100 µM (inactive) | > 100 µM (inactive) | > 100 µM (inactive) | > 100 µM (inactive) | > 100 µM (inactive) | > 100 µM (inactive) | > 100 µM (inactive) |
| C[n+]1ccc(Nc2ccc(NC(=O)c3ccc(Nc4cc[n+](C)c5ccc([N+](=O)[O-])cc45)cc3[N+](=O)[O-])cc2)cc1 |  | 64 µM (inactive) | > 60.1 µM (inactive) | > 100 µM (inactive) | 26.9 µM (inactive) | 20.8 µM (inactive) | > 100 µM (inactive) | 17.8 µM (inactive) | > 83.8 µM (inactive) | 47.6 µM (inactive) | 30.9 µM (inactive) | > 100 µM (inactive) | 21.7 µM (inactive) | > 100 µM (inactive) | 29.7 µM (inactive) | 30.5 µM (inactive) | > 100 µM (inactive) | 33.2 µM (inactive) |
| Cc1ccc2c(c1)SC(c1cc3c(cc1Br)OCO3)S2 (stereo unspecified) | 86.1 µM (inactive) | > 31.6 µM (inactive) | 0.516 µM (active) | > 31.6 µM (inactive) | 6.22 µM (inactive) | 26.9 µM (inactive) | > 31.6 µM (inactive) | > 31.6 µM (inactive) | 12.3 µM (inactive) | 19.7 µM (inactive) | > 31.6 µM (inactive) | 18.7 µM (inactive) | > 31.6 µM (inactive) | > 31.6 µM (inactive) | > 31.6 µM (inactive) | 23.9 µM (inactive) | > 31.6 µM (inactive) | > 31.6 µM (inactive) |
| CCOC(=O)c1c(/C=N\Nc2ccccc2)nc2ccccc2c1-c1ccccc1 | 38.1 µM (inactive) | 60.4 µM (inactive) | 46.5 µM (inactive) | 67.1 µM (inactive) | 45.4 µM (inactive) | 29.5 µM (inactive) | 32.7 µM (inactive) | 31.7 µM (inactive) | 65.8 µM (inactive) | 34.4 µM (inactive) | 56.5 µM (inactive) | 37.6 µM (inactive) | 38.2 µM (inactive) | > 100 µM (inactive) | 39.7 µM (inactive) | 42 µM (inactive) | > 100 µM (inactive) | 19.2 µM (inactive) |
| CS(=O)(=O)Oc1cccc(/C=N/N=C(\N)NO)c1 | 19.9 µM (inactive) | 73.1 µM (inactive) | 2.96 µM (inactive) | 35.2 µM (inactive) | 22.4 µM (inactive) | 19.1 µM (inactive) | 22.2 µM (inactive) | 35.2 µM (inactive) | 37.4 µM (inactive) | 22.8 µM (inactive) | 24.2 µM (inactive) | 24.8 µM (inactive) | 27.7 µM (inactive) | 14.7 µM (inactive) | 27.2 µM (inactive) | 32.9 µM (inactive) | 36 µM (inactive) | 23.9 µM (inactive) |
| O=CN1CCN(C=S)CC1 | > 100 µM (inactive) | > 100 µM (inactive) | > 100 µM (inactive) | > 100 µM (inactive) | > 100 µM (inactive) | > 100 µM (inactive) | > 100 µM (inactive) | > 100 µM (inactive) | > 100 µM (inactive) | > 100 µM (inactive) | > 100 µM (inactive) | > 100 µM (inactive) | > 100 µM (inactive) | > 100 µM (inactive) | > 100 µM (inactive) | > 100 µM (inactive) | > 100 µM (inactive) | > 100 µM (inactive) |
| Cc1cccc(C)c1NC(=O)CCc1nnc2s/c(=C\c3ccc(Cl)cc3)c(=O)n12 | 21.2 µM (inactive) | > 100 µM (inactive) | 73.8 µM (inactive) | 72.1 µM (inactive) | > 100 µM (inactive) | > 100 µM (inactive) | > 100 µM (inactive) | > 100 µM (inactive) | 36.8 µM (inactive) | > 100 µM (inactive) | > 100 µM (inactive) | > 100 µM (inactive) | 83.9 µM (inactive) | 42.3 µM (inactive) | > 100 µM (inactive) | 25.2 µM (inactive) | > 100 µM (inactive) | > 100 µM (inactive) |
| O=C1NC2OC(CO)C(O)C(O1)C2O (stereo unspecified) | > 100 µM (inactive) | > 100 µM (inactive) | > 100 µM (inactive) | > 100 µM (inactive) | > 100 µM (inactive) | > 100 µM (inactive) | > 100 µM (inactive) | > 100 µM (inactive) | > 100 µM (inactive) | > 100 µM (inactive) | > 100 µM (inactive) | > 100 µM (inactive) | > 100 µM (inactive) | > 100 µM (inactive) | > 100 µM (inactive) |  | > 100 µM (inactive) | > 100 µM (inactive) |
| c1ccc2c(c1)Cc1c(Cc3csc4ccccc34)ccc3cccc-2c13 | > 100 µM (inactive) |  | 19.7 µM (inactive) | > 100 µM (inactive) | > 100 µM (inactive) | 45.9 µM (inactive) | > 100 µM (inactive) | > 100 µM (inactive) | > 100 µM (inactive) | > 100 µM (inactive) | > 100 µM (inactive) | > 100 µM (inactive) | > 100 µM (inactive) | > 10 µM (inactive) | > 100 µM (inactive) | > 100 µM (inactive) | > 100 µM (inactive) | > 100 µM (inactive) |
| COC(=O)C(=O)C(CC(=O)Nc1c(C)cccc1C)C(=O)OC (stereo unspecified) | > 100 µM (inactive) |  |  | > 100 µM (inactive) | > 100 µM (inactive) | > 100 µM (inactive) | > 100 µM (inactive) | > 100 µM (inactive) | > 100 µM (inactive) | > 100 µM (inactive) | > 100 µM (inactive) | > 100 µM (inactive) | > 100 µM (inactive) | > 100 µM (inactive) | > 100 µM (inactive) | > 100 µM (inactive) | > 100 µM (inactive) | > 100 µM (inactive) |
| CC(C)CC(CNC(Cc1ccc(Cl)cc1)C(N)=O)NC(=O)C(Cc1c[nH]cn1)NC(=O)CNC(=O)C(NC(=O)C(C)NC(=O)C(Cc1c[nH]c2ccccc12)NC(=O)C(CCC(=O)O)NC(=O)C(N)Cc1ccccc1)C(C)C (stereo unspecified) | > 133 µM (inactive) | > 133 µM (inactive) | > 133 µM (inactive) | > 133 µM (inactive) | < 0.0133 µM (active) | > 133 µM (inactive) | > 133 µM (inactive) | > 133 µM (inactive) | > 133 µM (inactive) | 8.17 µM (inactive) |  | > 133 µM (inactive) | > 133 µM (inactive) |  | > 133 µM (inactive) | > 133 µM (inactive) |  | > 133 µM (inactive) |
| O=c1c2cccnc2ncn1CCCN1CCOCC1 | > 100 µM (inactive) |  | > 100 µM (inactive) | > 100 µM (inactive) | > 100 µM (inactive) | > 100 µM (inactive) | > 100 µM (inactive) | > 100 µM (inactive) | > 100 µM (inactive) | > 100 µM (inactive) | > 100 µM (inactive) | > 100 µM (inactive) | > 100 µM (inactive) | > 100 µM (inactive) | > 100 µM (inactive) | > 100 µM (inactive) | > 100 µM (inactive) | > 100 µM (inactive) |
